Key:
Erk1/2 = conditions: carrageenan-induced pleurisy rat model; Sawatzky et al.; cited from earlier work
RAF kinases [1] = molecular target: RAF kinases (Homo sapiens, UniProt P04049); conditions: read-out: RAF1 Kd; RAF1
RAF kinases [2] = molecular target: RAF kinases (Homo sapiens, UniProt P15056); conditions: read-out: BRAF WT Kd; BRAF WT
[3] = system: 290 distinct kinases tested excluding mutant variants (321 in the larger panel); conditions: no asterisk: panel of 290 distinct kinases
[4] = system: MEK1 phosphorylation in the A375 human melanoma cell line; experiment: cells; conditions: A-375, read-out: pMEK IC50
RAF kinases [5] = molecular target: RAF kinases (Homo sapiens, UniProt P15056, V600E); experiment: biochemical
Chain of RAF kinases (Homo sapiens, UniProt P15056, V600E) (P15056 whole entry V600E): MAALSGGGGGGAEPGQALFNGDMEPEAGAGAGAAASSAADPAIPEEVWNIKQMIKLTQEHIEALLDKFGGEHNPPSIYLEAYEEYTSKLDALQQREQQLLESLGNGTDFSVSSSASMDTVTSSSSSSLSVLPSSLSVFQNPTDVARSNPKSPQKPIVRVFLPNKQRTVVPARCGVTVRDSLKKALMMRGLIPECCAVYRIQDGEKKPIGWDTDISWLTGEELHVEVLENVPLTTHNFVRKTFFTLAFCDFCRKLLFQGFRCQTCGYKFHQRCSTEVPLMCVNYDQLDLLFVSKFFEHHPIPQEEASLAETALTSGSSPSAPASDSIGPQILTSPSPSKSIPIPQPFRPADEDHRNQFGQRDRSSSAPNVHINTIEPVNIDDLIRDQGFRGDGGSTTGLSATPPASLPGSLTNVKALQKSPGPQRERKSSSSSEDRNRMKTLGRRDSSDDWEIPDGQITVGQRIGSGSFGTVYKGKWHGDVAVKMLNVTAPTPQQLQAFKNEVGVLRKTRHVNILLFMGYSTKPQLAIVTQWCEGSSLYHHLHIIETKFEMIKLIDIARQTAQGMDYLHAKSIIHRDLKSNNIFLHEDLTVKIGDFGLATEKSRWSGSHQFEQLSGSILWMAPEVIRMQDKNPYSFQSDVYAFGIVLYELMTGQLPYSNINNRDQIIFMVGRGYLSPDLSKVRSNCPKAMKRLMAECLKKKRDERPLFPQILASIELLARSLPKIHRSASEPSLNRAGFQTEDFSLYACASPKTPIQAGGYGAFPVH

[6] = system: tumor growth or metastases; conditions: preclinical studies; Sharma et al.; cited from earlier work

Chain of RAF kinases (Homo sapiens, UniProt P04049) (P04049 whole entry): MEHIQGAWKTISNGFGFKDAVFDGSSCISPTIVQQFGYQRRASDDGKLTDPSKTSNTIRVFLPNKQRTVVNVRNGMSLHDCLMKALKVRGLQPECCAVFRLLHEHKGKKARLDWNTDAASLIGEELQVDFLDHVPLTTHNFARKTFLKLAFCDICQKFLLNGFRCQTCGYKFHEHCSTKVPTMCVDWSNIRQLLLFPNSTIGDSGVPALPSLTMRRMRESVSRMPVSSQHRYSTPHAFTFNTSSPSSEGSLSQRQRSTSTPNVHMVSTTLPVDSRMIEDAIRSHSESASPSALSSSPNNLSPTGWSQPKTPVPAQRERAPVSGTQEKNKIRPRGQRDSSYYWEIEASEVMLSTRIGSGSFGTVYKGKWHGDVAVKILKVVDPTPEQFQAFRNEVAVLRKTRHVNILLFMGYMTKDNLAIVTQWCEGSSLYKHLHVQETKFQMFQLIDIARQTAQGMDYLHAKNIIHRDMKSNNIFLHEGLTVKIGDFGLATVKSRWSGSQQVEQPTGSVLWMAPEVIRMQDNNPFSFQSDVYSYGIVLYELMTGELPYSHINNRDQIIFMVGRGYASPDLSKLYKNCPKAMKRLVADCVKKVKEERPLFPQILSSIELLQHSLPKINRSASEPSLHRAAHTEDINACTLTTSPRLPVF
Chain of RAF kinases (Homo sapiens, UniProt P15056) (P15056 whole entry): as the sequence (P15056 whole entry V600E) above, with E600V counted along it

SMILES | eosinophilic proinflammatory cytokine release (Erk1/2) | Kd (RAF kinases [1]) [nM] | Kd (RAF kinases [2]) [nM] | S35 [3] | IC50 [4] [nM] | Kd (RAF kinases [5]) [nM] | tumor growth or metastases in animals [6]
COc1cccc(-c2cc(=O)c3ccccc3o2)c1N [PD98059] | inhibits eosinophilic proinflammatory cytokine release |  |  |  |  |  | 
COc1cc2ncnc(Oc3cccc(NC(=O)Nc4cc(C(C)(C)C)nn4-c4ccccc4C)c3)c2cc1OC [Ex 342, 1-(3-tert-butyl-1-o-tolyl-1H-pyrazol-5-yl)-3-(3-(6,7-dimethoxyquinazolin-4-yloxy)phenyl)urea] |  | > 1000 | > 1000 | D (D > 0.40) | < 250 | 250 to 500 | 
COc1cc2ncnc(Sc3cccc(NC(=O)Nc4cc(C5(C(F)(F)F)CC5)nn4-c4ccc(C)cc4)c3)c2cc1OC [Ex 347, 1-(3-(6,7-dimethoxyquinazolin-4-ylthio)phenyl)-3-(1-p-tolyl-3-(1-(trifluoromethyl)cyclopropyl)-1H-pyrazol-5-yl)urea] |  | > 1000 | > 1000 | D (D > 0.40) | < 250 | 250 to 500 | 
CNC(=O)c1cc(Oc2ccc(NC(=O)Nc3ccc(Cl)c(C(F)(F)F)c3)cc2)ccn1 [Sorafenib] |  |  |  |  |  |  | decrease in tumor growth or metastases
COc1cc2ncnc(Sc3cccc(NC(=O)Nc4cc(C(C)(C)C)nn4-c4ccccc4C)c3)c2cc1OC [Ex 343, 1-(3-tert-butyl-1-o-tolyl-1H-pyrazol-5-yl)-3-(3-(6,7-dimethoxyquinazolin-4-ylthio)phenyl)urea] |  | > 1000 | > 1000 | C (0.20 < C ≦ 0.40) | < 250 | 250 to 500 | 
